Positions of bridges follow the written chain, without caps; N, C: chain ends. Non-standard residues stand in square brackets, D forms with d. Residues, ends and D or L forms follow the SMILES beside them. *: point of attachment. Ileψ(thiazoline)Cys = CC[C@H](C)[C@H](N)C1=N[C@H](C(=O)*)CS1; dOrn = NCCC[C@@H](N)C(=O)O
tested on: Streptomyces fradiae A54145.1, A54145.2 and A54145.3; assay: Resistance to antibiotics, sensitivity discs on seeded ISP No. 2 agar plates; conditions: identical for A54145.1, A54145.2, A54145.3; lincomycin 2 μg, penicillin G 10 units, bacitracin 10 units, cephalothin 30 μg, gentamicin 10 μg, neomycin 30 μg, oleandomycin 15 μg, rifampin 5 μg, streptomycin 10 μg, tetracycline 30 μg, tobramycin 10 μg, vancomycin 30 μg
Experimental: Resistance to antibiotics was measured by padding antibiotic sensitivity discs onto the surface of seeded ISP No. 2 agar plates.

Compound	resistance or sensitivity of the strains to antibiotic discs
CC[C@H](C)[C@H](N)C1=N[C@H](C(=O)N[C@@H](CC(C)C)C(=O)N[C@H](CCC(=O)O)C(=O)N[C@H](C(=O)N[C@H]2CCCCNC(=O)[C@H](CC(N)=O)NC(=O)[C@@H](CC(=O)O)NC(=O)[C@H](Cc3cnc[nH]3)NC(=O)[C@@H](Cc3ccccc3)NC(=O)[C@H]([C@@H](C)CC)NC(=O)[C@@H](CCCN)NC2=O)[C@@H](C)CC)CS1 [bacitracin] ({Ileψ(thiazoline)Cys}-L[dE]IK[dOrn]I[dF]H[dD]N; lactam 4-C)	sensitive
CC(=O)OCC1=C(C(=O)O)N2C(=O)[C@@H](NC(=O)Cc3cccs3)[C@H]2SC1 [cephalothin]	sensitive
CCC[C@@H]1C[C@@H](C(=O)N[C@@H]([C@H]2O[C@H](SC)[C@H](O)[C@@H](O)[C@H]2O)[C@@H](C)O)N(C)C1 [lincomycin]	resistant
CO[C@H]1C[C@H](O[C@H]2[C@H](C)[C@@H](O[C@@H]3O[C@H](C)C[C@H](N(C)C)[C@H]3O)[C@@H](C)C[C@@]3(CO3)C(=O)[C@H](C)[C@@H](O)[C@@H](C)[C@@H](C)OC(=O)[C@@H]2C)O[C@@H](C)[C@@H]1O [oleandomycin]	sensitive
CC1(C)S[C@@H]2[C@H](NC(=O)Cc3ccccc3)C(=O)N2[C@H]1C(=O)O [penicillin G]	resistant
CO[C@H]1/C=C/O[C@@]2(C)Oc3c(C)c(O)c4c(O)c(c(/C=N/N5CCN(C)CC5)c(O)c4c3C2=O)NC(=O)/C(C)=C\C=C\[C@H](C)[C@H](O)[C@@H](C)[C@@H](O)[C@@H](C)[C@H](OC(C)=O)[C@@H]1C [rifampin]	sensitive
[H]/N=C(/N)N[C@H]1[C@H](O)[C@@H](O)[C@H](O[C@@H]2O[C@@H](C)[C@](O)(C=O)[C@H]2O[C@@H]2O[C@@H](CO)[C@H](O)[C@@H](O)[C@@H]2NC)[C@@H](N/C(N)=N\[H])[C@@H]1O [streptomycin]	sensitive
CN(C)[C@@H]1C(O)=C(C(N)=O)C(=O)[C@@]2(O)C(O)=C3C(=O)c4c(O)cccc4[C@@](C)(O)[C@H]3C[C@@H]12 [tetracycline]	sensitive
NC[C@H]1O[C@H](O[C@H]2[C@H](O)[C@@H](O[C@H]3O[C@H](CO)[C@@H](O)[C@H](N)[C@H]3O)[C@H](N)C[C@@H]2N)[C@H](N)C[C@@H]1O [tobramycin]	sensitive
CN[C@H](CC(C)C)C(=O)N[C@H]1C(=O)N[C@@H](CC(N)=O)C(=O)N[C@H]2C(=O)N[C@H]3C(=O)N[C@H](C(=O)N[C@H](C(=O)O)c4cc(O)cc(O)c4-c4cc3ccc4O)[C@H](O)c3ccc(c(Cl)c3)Oc3cc2cc(c3O[C@@H]2O[C@H](CO)[C@@H](O)[C@H](O)[C@H]2O[C@H]2C[C@](C)(N)[C@H](O)[C@H](C)O2)Oc2ccc(cc2Cl)[C@H]1O [vancomycin]	sensitive
gentamicin	sensitive
neomycin	sensitive
